Data taken from patent US20070135436A1, “Chemical compounds” (Clavis Pharma AS, priority 2005, published 2007).
Read-outs that look alike come from different tables or passages of the source.

What was measured:
[1] = tested on: breast cancer cell line MaTu; experiment: MTT growth inhibition in breast cancer cell line MaTu; format: cell-based, human; conditions: MaTu cells; for IC50: 4 days incubation, MTT, read-out: IC50 μM ± Standard Deviation
Procedure: The breast cancer cell line MaTu was seeded, 5×10^3 cells per well, in 96-well-plates. The medium was RMPI 1640 with 2 mM Glutamine and 10% Foetal Bovine Serum. 24 hours later the test compounds were added in 6 concentrations. The cells were incubated for 4 days. The MTT solution was added to each well and incubated for 4 hours. The samples were read by an ELISA reader at 540 nm. The IC50 values were determined from growth curves. The test compounds were troxacitabine elaidic amid, troxacitabine petroselaidoate, troxacitabine-petroselaidic amide and troxacitabine γ-linolenoate.

several cell lines = conditions: prior art references; cited from earlier work

| Structure (SMILES) | IC50 ([1]; Homo sapiens, 96 h) [µM] | further results |
| --- | --- | --- |
| CCCCCCCCCCC/C=C/CCCCC(=O)Nc1ccn([C@@H]2CO[C@H](CO)O2)c(=O)n1 [troxacitabine-petroselaidic amide, Troxacitabine N^4-petroselaidic Acid Amide] | 0.15 ± 0.07 | – |
| CCCCCCCC/C=C/CCCCCCCC(=O)Nc1ccn([C@@H]2CO[C@H](CO)O2)c(=O)n1 [troxacitabine elaidic-amide, Troxacitabine N^4-elaidic Acid Amide, reference compound] | – | IC50 [1]: 3.58 ± 2.56 µM |
| CCCCCCCCC=CCCCCCCCC(=O)Nc1ccn(C2COC(CO)O2)c(=O)n1 (stereo not drawn) [oleic acid amid derivative] | – | times better activity than the elaidic acid amide counterpart (several cell lines): 2 to 5 times |

More lines, main results first:

| IC50 ([1]; Homo sapiens, 96 h) [µM] | Structure (SMILES) | further results |
| --- | --- | --- |
| 0.83 ± 0.59 | CCCCC/C=C\C/C=C\C/C=C\CCCCC(=O)OC[C@H]1OC[C@@H](n2ccc(N)nc2=O)O1 [troxacitabine γ-linolenoate, Troxacitabine 2′-hydroxymethyl-6,9,12-linolenoate] | – |
| 0.18 ± 0.12 | CCCCCCCCCCC/C=C/CCCCC(=O)OC[C@H]1OC[C@@H](n2ccc(N)nc2=O)O1 [troxacitabine petroselaidoate, Troxacitabine-2′-hydroxymethyl-petroselaidoate] | fold more active than troxacitabine elaidic amide ([1]; relative to troxacitabine elaidic amide): 20 fold |
